The record followed here is patent US12565680B2, “Cancer neoantigens and their utilities in cancer vaccines and TCR-based cancer immunotherapy” (THE METHODIST HOSPITAL SYSTEM, priority 2018, dated 2026).

The test system of experiment [1] is A2ESO TCR-transduced CD4^+ T cells. The method, then:
It was hypothesized that the improvement killing ability of CD4^+ T cells due to ThPOK knockdown is procedure of T-cell reprogramming via epigenetic regulation. To distinguish how ThPOK reprogrammed CD4^+ T cells to cytolytic CD4^+ T cells, a screening of A2ESO TCR-transduced CD4^+ T cells treated by various epigenetic inhibitors was performed.

The subject of experiment [2] is A2ESO TCR-T cells. The method, then:
Activated human T cells were transduced on day 2 and day 3 with A2ESO TCR viruses that were packaged by PG13-A2ESO TCR clone. […] To investigate the functional change of A2ESO TCR-T cells after 2-PCPA treatment, intracellular staining (ICS) was performed to check the expression of effector cytokines, targeting IL-2, IFN-γ and TNF-α. […] Another key feature of less-differentiated T cell is increased oxidative metabolism and mitochondrial respiratory capacity.

Experiment [3] deals with MDA-MB-231 cells expressing HLA-A2 and NY-ESO-1. The following applies: mouse. From the text:
A breast cancer model was established using MDA-MB-231 cells expressing HLA-A2 and NY-ESO-1 antigen in 8 weeks old NOD-scid IL2Rγnull (NSG) mice.

For experiment [4], the system named is CAR-T cells. From the text: (§1) Both CAR and luciferase were transduced into activated T cells and transfer into NSG mice that have been injected with Raji lymphoma cells.
In experiment [5] the test system is Raji lymphoma cells. The following applies: mouse.
Description: as §1

For experiment [6], the system named is primary human T cells. The note with it: OKT3 activated T cells, day 12, CD45RO^− CCR7^+ CD62L^+.
Experiment [7] concerns CD8^+ T cells isolated from 136 TILs. As to the kind of experiment: T-cell reactivity assay (ELISA): TMGs in MHC-I expressing Cos7 cells. It is filed as cell-based, human. The following applies: Cos7-A1, Cos7-B8, Cos7-C7 cells. The text has this:
To identify MHC-I neoantigens, MHC-I expressing Cos7 cells were transfected (Cos7-A1, Cos7-B8 and Cos7-C7) cells with 35 TMGs, respectively, followed by adding CD8^+ T cells isolated from 136 TILs. […] To exclude the possibility that other MHC-I and II molecules could also present neoantigens for T cell recognition, fibroblasts were generated from patient #136 tumor samples and used as APCs to express all MHC I and II molecules after IFN-γ pretreatment (FIG. 9C). The IFN-γ—pretreated fibroblasts were electroporated with in IVT mRNA of 136 mel TMGs, and then co-cultured with 136TILs.

Experiment [8] deals with 136TIL. The experiment in a line: Intracellular staining of IFN-γ after neoantigen peptide stimulation, 136TIL. The class given is cell-based, human. From the text: Among them, MAPK9 and ANKIB1 neoantigen-specific CD4^+ T cells accounted for 14.3% and 5.2% in the total T cell population, which accounted for 58% and 21% in the total tumor-reactive CD4^+ T cell population, respectively (FIG. 11B). By contrast, other neoantigen-specific CD4^+ T cells accounted for only a small percentage of T cells in the total T cell population (FIG. 11A). Since HHAT is only one MHC-I neoantigen, it was shown that HHAT neoantigen-specific CD8^+ T cells accounted for 10.6% in the total T cell population when stimulation with HHAT peptide (FIG. 11A), which accounted for 73% in the total tumor-reactive CD8^+ T cell population (FIG. 11B).
T cells were stimulated by various in vitro methods, such as tumor cells, peptides or DNA encoding neoantigens, etc. and induced to release cytokines. Stimulated T cells were resuspended in 100 μl of Cytofix/Cytoperm solution (BD Biosciences) per well for microwell plates (or 250 μl for tubes) and incubated for 20 min at 4° C. for cell fixation. Fixed cells were permeabilized by washing twice in 1× Perm/Wash buffer (BD Biosciences). Then the fixed/permeabilized cells were thoroughly resuspended in 50 μl of 1× Perm/Wash buffer containing 1 μl of phycoerythrin (PE)-conjugated IFN-γ antibody (Thermo Fisher Scientific) and incubate at 4° C. for 30 min in the dark. After that the cells were washed twice with 1× Perm/Wash buffer and ready for flow cytometric analysis.

Turning to `NC1CC1c1ccccc1` (stereo not shown) [2-PCPA], the “cytolytic activity of CD4^+ TCR-T cells” value in experiment [1] is on record as “dramatically enhanced the cytolytic activity”. For the same molecule, the “oxidative metabolism and spare respiratory capacity” value in experiment [2] is “increased oxidative metabolism and elevated spare respiratory capacity (SRC)”. For the same molecule, the “Tscm and Tcm percentages in A2ESO TCR-T cells” value in experiment [2] (8 uM) is “increased both Tscm and Tcm percentages”. Besides, the “frequency of A2ESO TCR-T cells with polyfunctional cytokine secretion” value in experiment [2] (ICS for IL-2, IFN-γ and TNF-α) is given as “slightly increased”. Further, the “in vitro survival effect on A2ESO TCR-T cells” value in experiment [2] (IL-2 free condition) is given as “not seen”. Besides, in experiment [2] (stimulation with IL-2 or 231-ESO cells), the “in vitro proliferation (CFSE)” value is reported as “high proliferation potential”. In addition, the “in vivo anti-tumor function of A2ESO TCR-T cells” value in experiment [3] was “significantly enhanced”. Besides, in experiment [3] (in vivo), the “memory phenotype of T cells after adoptive transfer” value is “maintained higher frequency of both Tscm and Tcm cells”. Also, in experiment [4], the “memory phenotype of CAR-T cells” value was “similarly increased the frequencies of less-differentiated memory T cells subsets” and the “metabolic reprogramming effect on CAR-T cells” value is “consistent with its effect on A2ESO TCR-T cells”. In experiment [4] (IL-2 free condition), the “in vitro survival of CAR-T cells” value is recorded as “survived better”. Moreover, in experiment [5], the “in vivo proliferation of CAR-T cells (in vivo imaging)” value was “grew faster than control CAR-T cells”. Also, the “population of Tscm” value in experiment [6] was “increased the population of Tscm in both CD4^+ and CD8^+ T cells”.

In the case of TSMLILSNLVFLEGNEVGKTYWNRI [HHAT], in experiment [7], the “activation of CD8^+ T cell response” value is given as “HLA-A1 restricted neoantigen”. In experiment [8], the “neoantigen-specific CD8^+ T cells in the total T cell population” value was 10.6% and the “share in the total tumor-reactive CD8^+ T cell population” value was 73%.
